Experimental data from the NIST ThermoML archive (doi:10.1016/j.jct.2019.03.023).
± gives the expanded uncertainty stated by the source.

Assay: molar heat capacity at constant volume
Settings: Fluid (supercritical or subcritical phases), Vacuum adiabatic calorimetry

CC(C)O [propan-2-ol]
Settings	molar heat capacity at constant volume [J/K/mol]
501.94 K, Mass density=343.1 kg/m3	317.72 ± 9.6
502.03 K, Mass density=266.3 kg/m3	345.37 ± 10
502.04 K, Mass density=343.1 kg/m3	315.2 ± 9.4
502.13 K, Mass density=266.3 kg/m3	347.59 ± 10
502.13 K, Mass density=343.1 kg/m3	309.67 ± 9.3
502.22 K, Mass density=266.3 kg/m3	350.23 ± 11
502.22 K, Mass density=343.1 kg/m3	314.54 ± 9.4
502.31 K, Mass density=266.3 kg/m3	348.13 ± 10
502.32 K, Mass density=343.1 kg/m3	312.25 ± 9.4
502.41 K, Mass density=266.3 kg/m3	351.2 ± 11
502.41 K, Mass density=343.1 kg/m3	317.66 ± 9.6
502.5 K, Mass density=266.3 kg/m3	350.29 ± 11
502.5 K, Mass density=343.1 kg/m3	312.07 ± 9.4
502.6 K, Mass density=266.3 kg/m3	350.29 ± 11
502.6 K, Mass density=343.1 kg/m3	310.39 ± 9.3
503.92 K, Mass density=329.2 kg/m3	322.05 ± 9.7
504.02 K, Mass density=329.2 kg/m3	325.72 ± 9.8
504.11 K, Mass density=329.2 kg/m3	323.31 ± 9.7
504.3 K, Mass density=329.2 kg/m3	318.86 ± 9.6
504.37 K, Mass density=281.9 kg/m3	348.13 ± 10
504.46 K, Mass density=281.9 kg/m3	351.02 ± 11
504.5 K, Mass density=329.2 kg/m3	325.72 ± 9.8
504.56 K, Mass density=234.3 kg/m3	386.83 ± 12
504.56 K, Mass density=281.9 kg/m3	346.57 ± 10
504.59 K, Mass density=329.2 kg/m3	319.65 ± 9.6
504.65 K, Mass density=234.3 kg/m3	381.48 ± 11
504.65 K, Mass density=281.9 kg/m3	351.08 ± 11
504.74 K, Mass density=234.3 kg/m3	386.35 ± 12
504.74 K, Mass density=281.9 kg/m3	346.63 ± 10
504.84 K, Mass density=234.3 kg/m3	392.36 ± 12
504.84 K, Mass density=281.9 kg/m3	355.64 ± 11
504.93 K, Mass density=281.9 kg/m3	355.64 ± 11
504.97 K, Mass density=234.3 kg/m3	391.52 ± 12
504.98 K, Mass density=329.2 kg/m3	328.36 ± 9.9
505.02 K, Mass density=281.9 kg/m3	349.27 ± 10
505.08 K, Mass density=329.2 kg/m3	326.92 ± 9.8
505.12 K, Mass density=234.3 kg/m3	387.07 ± 12
505.12 K, Mass density=281.9 kg/m3	354.2 ± 11
505.21 K, Mass density=234.3 kg/m3	382.87 ± 11
505.21 K, Mass density=281.9 kg/m3	355.76 ± 11
505.21 K, Mass density=324.5 kg/m3	333.29 ± 10
505.27 K, Mass density=329.2 kg/m3	325.96 ± 9.8
505.3 K, Mass density=234.3 kg/m3	387.13 ± 12
505.3 K, Mass density=324.5 kg/m3	339.78 ± 10
505.37 K, Mass density=329.2 kg/m3	325.35 ± 9.8
505.4 K, Mass density=234.3 kg/m3	387.13 ± 12
505.49 K, Mass density=288.99 kg/m3	349.87 ± 11
505.58 K, Mass density=288.99 kg/m3	350.77 ± 11
505.58 K, Mass density=324.5 kg/m3	333.05 ± 10
505.68 K, Mass density=288.99 kg/m3	343.14 ± 10
505.68 K, Mass density=324.5 kg/m3	338.82 ± 10
505.77 K, Mass density=288.99 kg/m3	350.47 ± 11
505.77 K, Mass density=324.5 kg/m3	335.27 ± 10
505.77 K, Mass density=343.1 kg/m3	323.67 ± 9.7
505.86 K, Mass density=288.99 kg/m3	346.63 ± 10
505.86 K, Mass density=324.5 kg/m3	337.13 ± 10
505.86 K, Mass density=343.1 kg/m3	325.29 ± 9.8
505.96 K, Mass density=288.99 kg/m3	350.53 ± 11
505.96 K, Mass density=324.5 kg/m3	332.09 ± 10
505.96 K, Mass density=343.1 kg/m3	323.97 ± 9.7
506.05 K, Mass density=288.99 kg/m3	354.32 ± 11
506.05 K, Mass density=324.5 kg/m3	336.65 ± 10
506.05 K, Mass density=343.1 kg/m3	326.26 ± 9.8
506.14 K, Mass density=288.99 kg/m3	350.59 ± 11
506.14 K, Mass density=324.5 kg/m3	342.42 ± 10
506.14 K, Mass density=343.1 kg/m3	328.36 ± 9.9
506.24 K, Mass density=288.99 kg/m3	350.65 ± 11
506.24 K, Mass density=324.5 kg/m3	340.02 ± 10
506.24 K, Mass density=343.1 kg/m3	327.04 ± 9.8
506.33 K, Mass density=274 kg/m3	361.17 ± 11
506.33 K, Mass density=288.99 kg/m3	346.33 ± 10
506.33 K, Mass density=324.5 kg/m3	336.41 ± 10
506.33 K, Mass density=343.1 kg/m3	326.44 ± 9.8
506.42 K, Mass density=274 kg/m3	362.97 ± 11
506.42 K, Mass density=343.1 kg/m3	329.92 ± 9.9
506.43 K, Mass density=329.2 kg/m3	328.06 ± 9.9
506.52 K, Mass density=274 kg/m3	361.05 ± 11
506.52 K, Mass density=288.99 kg/m3	351.92 ± 11
506.52 K, Mass density=324.5 kg/m3	341.04 ± 10
506.52 K, Mass density=343.1 kg/m3	328.3 ± 9.9
506.53 K, Mass density=329.2 kg/m3	330.64 ± 9.9
506.61 K, Mass density=274 kg/m3	365.62 ± 11
506.61 K, Mass density=288.99 kg/m3	355.52 ± 11
506.61 K, Mass density=343.1 kg/m3	329.98 ± 9.9
506.62 K, Mass density=329.2 kg/m3	335.93 ± 10
506.7 K, Mass density=288.99 kg/m3	357.63 ± 11
506.7 K, Mass density=324.5 kg/m3	343.74 ± 10
506.72 K, Mass density=329.2 kg/m3	332.69 ± 10
506.8 K, Mass density=288.99 kg/m3	349.21 ± 10
506.8 K, Mass density=343.1 kg/m3	329.08 ± 9.9
506.82 K, Mass density=329.2 kg/m3	332.27 ± 10
506.89 K, Mass density=288.99 kg/m3	354.98 ± 11
